Read-outs that look alike come from different tables or passages of the source.
Target: T1, PD-1/PD-L1 interaction (PD-1-Ig / PD-L1-His) (Homo sapiens, UniProt Q9NZQ7)
T1 construct: hPDL1(18-239)-TVMV-His; TVMV protease site linker (C); made in house; host or cells: HEK293T
Assay: PD-1/PD-L1 Homogenous Time-Resolved Fluorescence (HTRF) binding assay
Details: PD-L1-His 10 nM, PD-1-Ig 20 nM, read-out: Range or IC50
Text: The ability of the compounds of formula (I) to bind to PD-L1 was investigated using a PD-1/PD-L1 Homogenous Time-Resolved Fluorescence (HTRF) binding assay.
Homogenous Time-Resolved Fluorescence (HTRF) Binding Assay.
The interaction of PD-1 and PD-L1 can be assessed using soluble, purified preparations of the extracellular domains of the two proteins. The PD-1 and PD-L1 protein extracellular domains were expressed as fusion proteins with detection tags, for PD-1, the tag was the Fc portion of Immunoglobulin (PD-1-Ig) and for PD-L1 it was the 6 histidine motif (PD-L1-His). All binding studies were performed in an HTRF assay buffer consisting of dPBS supplemented with 0.1% […] bovine serum albumin and 0.05% (v/v) Tween-20. For the h/PD-L1-His binding assay, inhibitors were pre-incubated with PD-L1-His (10 nM final) for 15 m in 4 μl of assay buffer, followed by addition of PD-1-Ig (20 nM final) in 1 μl of assay buffer and further incubation for 15 m. HTRF detection was achieved using europium crypate-labeled anti-Ig (1 nM final) and allophycocyanin (APC) labeled anti-His (20 nM final). Antibodies were diluted in HTRF detection buffer and 5 μl was dispensed on top of the binding reaction. […] Additional binding assays were established between the human proteins PD-1-Ig/PD-L2-His (20 & 5 nM, respectively) and CD80-His/PD-L1-Ig (100 & 10 nM, respectively). […]

T1 sequence (Q9NZQ7 with tags, fused parts or gaps): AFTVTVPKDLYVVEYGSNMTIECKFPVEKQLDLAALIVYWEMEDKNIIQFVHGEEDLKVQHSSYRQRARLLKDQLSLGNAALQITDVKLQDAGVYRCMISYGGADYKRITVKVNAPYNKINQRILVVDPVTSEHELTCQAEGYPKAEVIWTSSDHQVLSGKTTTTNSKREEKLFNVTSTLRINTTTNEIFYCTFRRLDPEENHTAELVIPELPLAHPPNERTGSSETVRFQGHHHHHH

Row | Structure (SMILES) | IC50 (IC50 range class) [nM] | IC50 (numeric IC50) [nM]
1 | Cc1c(OCCCN[C@H]2CC[C@H](O)CC2)cccc1-c1cccc(OCCCN2CC[C@@H](O)C2)c1C [Example 2017, (R)-1-(3-((3′-(3-(((1r,4r)-4-hydroxycyclohexyl)amino)propoxy)-2,2′-dimethyl-[1,1′-biphenyl]-3-yl)oxy)propyl)pyrrolidin-3-ol] | 20.1 to 90 | –
2 | CC(=O)N[C@@H]1CCN(CCCOc2cccc(-c3cccc(OCCCN4CC[C@@H](O)C4)c3C)c2C)C1 [Example 2018, N—((R)-1-(3-((3′-(3-((R)-3-hydroxypyrrolidin-1-yl)propoxy)-2,2′-dimethyl-[1,1′-biphenyl]-3-yl)oxy)propyl)pyrrolidin-3-yl)acetamide] | – | 69
3 | Cc1c(OCCCN2CCCC(C(N)=O)C2)cccc1-c1cccc(OCCCN2CC[C@@H](O)C2)c1C (stereo partly drawn) [Example 2019, 1-(3-((3′-(3-((R)-3-hydroxypyrrolidin-1-yl)propoxy)-2,2′-dimethyl-[1,1′-biphenyl]-3-yl)oxy)propyl)piperidine-3-carboxamide] | 0.04 to 20 | –
4 | Cc1c(OCCCNCCCn2ccnc2)cccc1-c1cccc(OCCCN2CC[C@@H](O)C2)c1C [Example 2020, (R)-1-(3-((3′-(3-((3-(1H-imidazol-1-yl)propyl)amino)propoxy)-2,2′-dimethyl-[1,1′-biphenyl]-3-yl)oxy)propyl)pyrrolidin-3-ol] | 0.04 to 20 | –
5 | Cc1c(OCCCNCCCN2CCOCC2)cccc1-c1cccc(OCCCN2CC[C@@H](O)C2)c1C [Example 2021, (R)-1-(3-((2,2′-dimethyl-3′-(3-((3-morpholinopropyl)amino)propoxy)-[1,1′-biphenyl]-3-yl)oxy)propyl)pyrrolidin-3-ol] | 20.1 to 90 | –
6 | Cc1c(OCCCNCCO)cccc1-c1cccc(OCCCNCCO)c1C [Example 2027, 2,2′-((((2,2′-dimethyl-[1,1′-biphenyl]-3,3′-diyl)bis(oxy))bis(propane-3,1-diyl))bis(azanediyl))bis(ethan-1-ol)] | 20.1 to 90 | –
7 | Cc1c(OCCCNCCc2ccncc2)cccc1-c1cccc(OCCCNCCc2ccncc2)c1C [Example 2028, 3,3′-((2,2′-dimethyl-[1,1′-biphenyl]-3,3′-diyl)bis(oxy))bis(N-(2-(pyridin-4-yl)ethyl)propan-1-amine)] | 0.04 to 20 | –
8 | Cc1c(OCCCN(C)CCCO)cccc1-c1cccc(OCCCN(C)CCCO)c1C [Example 2030, 3,3′-((((2,2′-dimethyl-[1,1′-biphenyl]-3,3′-diyl)bis(oxy))bis(propane-3,1-diyl))bis(methylazanediyl))bis(propan-1-ol)] | 0.04 to 20 | –
9 | Cc1c(OCCCN(C)C[C@H](O)CO)cccc1-c1cccc(OCCCN(C)C[C@H](O)CO)c1C [Example 2031, (2S,2′S)-3,3′-((((2,2′-dimethyl-[1,1′-biphenyl]-3,3′-diyl)bis(oxy))bis(propane-3,1-diyl))bis(methylazanediyl))bis(propane-1,2-diol)] | 0.04 to 20 | –
10 | Cc1c(OCCCN(C)CCN(C)C)cccc1-c1cccc(OCCCN2CC[C@@H](O)C2)c1C [Example 2032, (R)-1-(3-((3′-(3-((2-(dimethylamino)ethyl)(methyl)amino)propoxy)-2,2′-dimethyl-[1,1′-biphenyl]-3-yl)oxy)propyl)pyrrolidin-3-ol] | 20.1 to 90 | –
11 | Cc1c(OCCCN2CC[C@@H](O)C2)cccc1-c1cccc(OCCCN2CC[C@H](CO)[C@H](O)C2)c1C [Example 2033, (3S,4R)-4-(hydroxymethyl)-1-(3-((3′-(3-((R)-3-hydroxypyrrolidin-1-yl)propoxy)-2,2′-dimethyl-[1,1′-biphenyl]-3-yl)oxy)propyl)piperidin-3-ol] | 0.04 to 20 | –
12 | Cc1c(OCCCN2CCN(C)C(=O)C2)cccc1-c1cccc(OCCCN2CC[C@@H](O)C2)c1C [Example 2036, (R)-4-(3-((3′-(3-(3-hydroxypyrrolidin-1-yl)propoxy)-2,2′-dimethyl-[1,1′-biphenyl]-3-yl)oxy)propyl)-1-methylpiperazin-2-one] | 90.1 to 1000 | –

Second part, the compound after the results:

Row | IC50 (IC50 range class) [nM] | IC50 (numeric IC50) [nM] | Structure (SMILES)
13 | 20.1 to 90 | – | Cc1c(OCCCNC[C@H](O)CO)cccc1-c1cccc(OCCCN2CC[C@@H](O)C2)c1C [Example 2011, (S)-3-((3-((3′-(3-((R)-3-hydroxypyrrolidin-1-yl)propoxy)-2,2′-dimethyl-[1,1′-biphenyl]-3-yl)oxy)propyl)amino)propane-1,2-diol]
14 | 90.1 to 1000 | – | Cc1c(OCCCN[C@@H](CO)C(=O)O)cccc1-c1cccc(OCCCN2CC[C@@H](O)C2)c1C [Example 2012, (3-((3′-(3-((R)-3-hydroxypyrrolidin-1-yl)propoxy)-2,2′-dimethyl-[1,1′-biphenyl]-3-yl)oxy)propyl)-L-serine]
15 | 90.1 to 1000 | – | Cc1c(OCCCN[C@@](C)(CO)C(=O)O)cccc1-c1cccc(OCCCN2CC[C@@H](O)C2)c1C [Example 2013, (S)-3-hydroxy-2-((3-((3′-(3-((R)-3-hydroxypyrrolidin-1-yl)propoxy)-2,2′-dimethyl-[1,1′-biphenyl]-3-yl)oxy)propyl)amino)-2-methylpropanoic acid]
16 | 20.1 to 90 | – | Cc1c(OCCCNCCO)cccc1-c1cccc(OCCCN2CC[C@@H](O)C2)c1C [Example 2014, (R)-1-(3-((3′-(3-((2-hydroxyethyl)amino)propoxy)-2,2′-dimethyl-[1,1′-biphenyl]-3-yl)oxy)propyl)pyrrolidin-3-ol]
17 | 20.1 to 90 | – | Cc1c(OCCCNCC(O)C(=O)O)cccc1-c1cccc(OCCCN2CC[C@@H](O)C2)c1C (stereo partly drawn) [Example 2016, 2-hydroxy-3-((3-((3′-(3-((R)-3-hydroxypyrrolidin-1-yl)propoxy)-2,2′-dimethyl-[1,1′-biphenyl]-3-yl)oxy)propyl)amino)propanoic acid]
18 | 0.04 to 20 | – | Cc1c(OCCCNCCc2cccnc2)cccc1-c1cccc(OCCCN2CC[C@@H](O)C2)c1C [Example 2022, (R)-1-(3-((2,2′-dimethyl-3′-(3-((2-(pyridin-3-yl)ethyl)amino)propoxy)-[1,1′-biphenyl]-3-yl)oxy)propyl)pyrrolidin-3-ol]
19 | 20.1 to 90 | – | Cc1c(OCCCNCc2ccccn2)cccc1-c1cccc(OCCCN2CC[C@@H](O)C2)c1C [Example 2024, (R)-1-(3-((2,2′-dimethyl-3′-(3-((pyridin-2-ylmethyl)amino)propoxy)-[1,1′-biphenyl]-3-yl)oxy)propyl)pyrrolidin-3-ol]
20 | 20.1 to 90 | – | Cc1c(OCCCN(C)CCO)cccc1-c1cccc(OCCCN2CC[C@@H](O)C2)c1C [Example 2034, (R)-1-(3-((3′-(3-((2-hydroxyethyl)(methyl)amino)propoxy)-2,2′-dimethyl-[1,1′-biphenyl]-3-yl)oxy)propyl)pyrrolidin-3-ol]
21 | 0.04 to 20 | – | Cc1c(OCCCNCCc2ccncc2)cccc1-c1cccc(OCCCN2CC[C@@H](O)C2)c1C [Example 2035, (R)-1-(3-((2,2′-dimethyl-3′-(3-((2-(pyridin-4-yl)ethyl)amino)propoxy)-[1,1′-biphenyl]-3-yl)oxy)propyl)pyrrolidin-3-ol]
22 | 90.1 to 1000 | – | Cc1c(OCCCN[C@@H](Cc2ccncc2)C(=O)O)cccc1-c1cccc(OCCCN2CC[C@@H](O)C2)c1C [Example 2037, (S)-2-((3-((3′-(3-((R)-3-hydroxypyrrolidin-1-yl)propoxy)-2,2′-dimethyl-[1,1′-biphenyl]-3-yl)oxy)propyl)amino)-3-(pyridin-4-yl)propanoic acid]
23 | 90.1 to 1000 | – | Cc1c(OCCCNCCC(N)=O)cccc1-c1cccc(OCCCN2CC[C@@H](O)C2)c1C [Example 2038, (R)-3-((3-((3′-(3-(3-hydroxypyrrolidin-1-yl)propoxy)-2,2′-dimethyl-[1,1′-biphenyl]-3-yl)oxy)propyl)amino)propanamide]

Source: patent publication US10144706B2 (BRISTOL-MYERS SQUIBB COMPANY, priority 2016, dated 2018)
